# Laboratory results: patent US8609635B2, “Fused tricyclic silyl compounds and methods of use thereof for the treatment of viral diseases” (priority 2010, dated 2013)
# pEC50: −log10 of the molar value.
# What was measured:
# HCV replicon gt2a_JFH = assay: Cell-based HCV replicon assay (TaqMan), genotype 2a (JFH); details: Hepatitis C virus, 72 h, replicon 2a (JFH); replicon RNA by TaqMan, day 3
# Summary of the method: (§1)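 Replicon cells seeded at 5000 cells/well with compound (10 serial 2-fold dilutions from 250 μM to 1 μM top dose; 0.5% DMSO, 5% FBS) and lysed on day 3. Replicon RNA quantified by multiplex TaqMan RT-PCR (NS5B amplicon, GAPDH control); ΔCT versus concentration fitted to sigmoid dose-response. Chimeras carry patient-isolate NS5A.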
# [1] = system: HCV chimeric replicon with NS5A of genotype 3a (NC00982); assay: Cell-based HCV replicon assay (TaqMan), chimeric replicon genotype 3a (NC00982); details: Hepatitis C virus, 72 h, read-out: HCV replicon EC50 3a (NC00982), chimeric replicon 3a (NC00982); replicon RNA by TaqMan, day 3
# Summary of the method: as §1
# [2] = system: HCV chimeric replicon with NS5A of genotype 4a (DQ41878); assay: Cell-based HCV replicon assay (TaqMan), chimeric replicon genotype 4a (DQ41878); details: Hepatitis C virus, 72 h, read-out: HCV replicon EC50 4a (DQ41878)
# Summary of the method: as §1
# [3] = system: HCV replicon 1a (Y93H) mutant; assay: Cell-based HCV replicon assay (TaqMan), genotype 1a mutant Y93H; details: Hepatitis C virus, 72 h, read-out: HCV replicon EC50 1a (Y93H)
# Summary of the method: as §1
# [4] = system: HCV replicon 1a (L31V) mutant; assay: Cell-based HCV replicon assay (TaqMan), genotype 1a mutant L31V; details: Hepatitis C virus, 72 h, read-out: HCV replicon EC50 1a (L31V)
# Description: Measurement of inhibition by compounds of the present invention was performed using the HCV replicon system. Several different replicons encoding different HCV genotypes or mutations were used. In addition, potency measurements were made using different formats of the replicon assay, including different ways of measurements and different plating formats. See Jan M. Vrolijk et al., A replicons-based bioassay for the measurement of interferons in patients with chronic hepatitis C, 110 J. VIROLOGICAL METHODS 201 (2003); Steven S. Carroll et al., Inhibition of Hepatitis C Virus RNA Replication by 2′-Modified Nucleoside Analogs, 278(14) J. BIOLOGICAL […] 11979 (2003). However, the underlying principles are common to all of these determinations, and are outlined below.
# Compounds of the present invention were assayed for cell-based anti-HCV activity using the following protocol. Replicon cells were seeded at 5000 cells/well in 96-well collagen I-coated Nunc plates in the presence of the test compound. Various concentrations of test compound, typically in 10 serial 2-fold dilutions, were added to the assay mixture, with the starting concentration ranging from 250 μM to 1 μM. The final concentration of DMSO was 0.5%, fetal bovine serum was 5%, in the assay media. Cells were harvested on day 3 by the addition of 1× cell lysis buffer (Ambion cat #8721). The replicon RNA level was measured using real time PCR (TaqMan® assay). The amplicon was located in 5B. The PCR primers were: 5B.2F, […] (SEQ. ID NO. 1); 5B.2R, […] (SEQ. ID NO. 2); the probe sequence was FAM-labeled […] (SEQ. ID NO. 3). GAPDH RNA was used as endogenous control and was amplified in the same reaction as NS5B (multiplex PCR) using primers and VIC-labeled probe recommended by the manufacturer (PE Applied Biosystem). The real-time RT-PCR reactions were run on ABI PRISM 7900HT Sequence Detection System using the following program: 48° C. for 30 minutes, 95° C. for 10 minutes, 40 cycles of 95° C. for 15 sec, 60° C. for 1 minute. The ΔCT values (CT5B-CTGAPDH) were plotted against the concentration of test compound and fitted to the sigmoid dose-response model using XLfit4 (MDL). […] Alternatively, to quantitate the absolute amount of replicon RNA, a standard curve was established by including serially diluted T7 transcripts of replicon RNA in the Taqman assay. All TaqMan® reagents were from PE Applied Biosystems. Such an assay procedure was described in detail in e.g. Malcolm et al., Antimicrobial Agents and Chemotherapy 50: 1013-1020 (2006).
# Wherein gt1a_H77 was prepared as described in Yi et al., J Virol. 2004, 78(15):7904-15; gt1b_con1 was prepared as described in Lohmann et al., Science 1999, 285(5424):110-3; and gt2a_JFH was prepared as described in Kato et al., Gastroenterology. 2003, 125(6):1808-17. Chimeric replicons contain NS5A from patient isolates of genotypes 1a, 1b, 2b, 3a and 4a as indicated.
# [5] = Pharmacokinetic analysis in monkeys; format: in vivo, male cynomolgus monkeys; details: Monkey, dihydrochloride salt, 2 mpk/PO, 1 mpk/IV
# Description: Various pharmacokinetic parameters for compound 56 were measured in rats, dogs and monkeys as described below.
# Following an overnight fast, male cynomolgus monkeys were dosed with the dihydrochloride salt of compound 56 orally at 2 mg/kg as a suspension in 0.4% hydroxylpropyl methylcellulose (HPMC) or intravenously at 1 mg/kg as a solution in 20% hydroxypropyl-β-cyclodextrin (20% HPβCD). For oral dosing, the animals dosed by oro-gastric intubation. Monkeys were fed approximately 1 hour before dosing and 4 hours after dosing. Blood samples were collected from the saphenous and/or cephalic vein at 0.25, 0.5, 1, 2, 4, 6, 8, 12, 24, 48, and 72 (PO), and 0.167, 0.25, 0.5, 1, 2, 4, 6, 8, 12, 24, 48, and 72 hrs (IV) post-dosing and centrifuged to generate plasma. The plasma samples were stored at […] until analysis.
# Collected plasma samples were analyzed for the presence of compound 56 using LC-MS/MS as described below.
# The HPLC/API-MS/MS system for the example data consisted of a HPLC pumping system and a auto sampler with the sample tray refrigeration option connected directly to a triple quadrupole mass spectrometer with an API source. Typical HPLC methods for the example data was based on a fast gradient of two solvents: solvent A consisted of 0.1% formic acid in water, and solvent B consisted of 0.1% formic acid in acetonitrile. A fast linear gradient (start at 90% A for 0.2 min, ramp to 95% B from 0.2 to 0.5 min, hold at 95% B […], then ramp back to 90% A from 1.0 to 1.1 min, then hold at, […] from 1.1 to 1.2 min) was used. The flow rate for the HPLC system was set to 1 mL/min throughout the HPLC gradient; the HPLC column was a Halo C18 column (2.7 micron particle size, 50×2.1 mm). The example compounds were analyzed by positive ion atmospheric pressure chemical ionization tandem mass spectrometry (APCI-MS/MS). As a general procedure, selected reaction monitoring (SRM) methods were developed for each compound prior to analysis of the plasma samples. Normally, the individual SRM transitions were based on a fragmentation from the protonated molecule ([MH].) to a characteristic product ion.
# Using the methods described above, the following pharmacokinetic parameters were calculated in rats, dogs and monkeys and the results are summarized in the table below.
smiles,measurement,setting,value
COC(=O)N[C@H](C(=O)N1CC(F)(F)C[C@H]1c1ncc(-c2ccc(-c3ccc4c(ccc5nc([C@@H]6C[Si](C)(C)CN6C(=O)[C@@H](NC(=O)OC)C(C)C)[nH]c54)c3)cc2)[nH]1)C(C)C [Compound 56],pEC50,HCV replicon gt2a_JFH,10.57
same,pEC50,[1],9.46
same,pEC50,[2],10.70
same,pEC50,[3],7.34
same,pEC50,[4],7.80
same,Effective Half-Life,[5],17 h
same,Systemic Clearance,[5],1.2 mL/min/kg
same,Volume of Distribution,[5],1.7 L/kg
same,Oral Bioavailability,[5]; dose-normalized AUC between PO and IV,11.7%
